Each structure is given as a SMILES string.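 Results reflect a 48-hour exposure of cells in 96-well plates to compound at five concentrations. At the GI50, growth is halved.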 The source made the active and inactive calls. Cut-off read from the data, not from the text of the source: active = GI50 up to about 1.1 µM and inactive = higher.

Test systems include HOP-62; CAKI-1; NCI/ADR-RES; LOX IMVI; EKVX; SNB-19; MCF7; OVCAR-8; RXF 393; NCI-H460; TK-10; T47D; SF-295; SNB-75; UACC-257; DU-145; NCI-H226; Hs-578T; HCT-15; MDA-N.
Test in all cases: growth of human tumour cells (NCI), 48 h

For `COc1cc2c(cc1OCCCOc1cc3c(cc1OC)C(=O)N1CCC[C@H]1CN3)N=C[C@@H]1CCCN1C2=O`, the GI50 in the experiment on HOP-62 was 0.0317 µM (active); in the experiment on CAKI-1, 0.324 µM (active); in the experiment with NCI/ADR-RES, 3.11 µM (inactive); in the experiment with LOX IMVI it was 0.0371 µM (active); in the experiment on EKVX it was 1.89 µM (inactive); with SNB-19, 0.0869 µM (active). Besides, the GI50 in the experiment on MCF7 is < 0.0391 µM (active); in the experiment with OVCAR-8, 0.232 µM (active); in the experiment with RXF 393, 0.0497 µM (active); with NCI-H460, 0.228 µM (active); with TK-10, 0.163 µM (active); in the experiment on T47D, 0.0309 µM (active). Also, the GI50 with SF-295 was 0.123 µM (active); in the experiment on SNB-75, 0.179 µM (active); with UACC-257, 0.206 µM (active); in the experiment on DU-145, 0.357 µM (active); with NCI-H226 it was 0.0782 µM (active); in the experiment on Hs-578T, 0.267 µM (active). For the same compound, the GI50 with HCT-15 is 1.86 µM.
On to `COc1ccc2c(c1)CCN1CCCc3ccc(OC)cc3C21` (stereo not drawn), for which the GI50 was 67.9 µM (inactive) in the experiment on HOP-62; 41.8 µM (inactive) with CAKI-1; 42.9 µM (inactive) in the experiment on NCI/ADR-RES; 41.2 µM (inactive) in the experiment on LOX IMVI; > 100 µM (inactive) in the experiment on EKVX; > 100 µM (inactive) in the experiment with SNB-19. For the same compound, the GI50 in the experiment on MCF7 is 31.3 µM (inactive); in the experiment on OVCAR-8, > 100 µM (inactive); with RXF 393, 41.4 µM (inactive); with TK-10 it was > 100 µM (inactive); in the experiment with T47D it was 50.6 µM (inactive); in the experiment with SF-295, 24.6 µM (inactive). Besides, the GI50 in the experiment with SNB-75 was 16.4 µM (inactive); in the experiment on UACC-257, 73.8 µM (inactive); with DU-145, > 100 µM (inactive); in the experiment on NCI-H226, 38.5 µM (inactive); in the experiment with Hs-578T it was 48.1 µM (inactive); with HCT-15 it was 54.8 µM.
For the compound `Cc1cc(OC(=O)Nc2cccc3ccccc23)c(C(C)C)cc1C(=S)Nc1ccccc1`, the GI50 with HOP-62 was 16.6 µM (inactive); in the experiment with CAKI-1, 22.1 µM (inactive); with NCI/ADR-RES, 16.6 µM (inactive); with LOX IMVI it was 14.7 µM (inactive); in the experiment with EKVX, 23.7 µM (inactive); in the experiment with SNB-19, 27.2 µM (inactive). For the same compound, the GI50 in the experiment with MDA-N was 17.9 µM (inactive); in the experiment on MCF7, 17.4 µM (inactive); in the experiment on OVCAR-8, 12.7 µM (inactive); with NCI-H460 it was 16.9 µM (inactive); in the experiment with T47D, 8.17 µM (inactive); in the experiment on SF-295 it was 0.0608 µM (active). Besides, the GI50 was 18.7 µM (inactive) with UACC-257, 22.3 µM (inactive) with DU-145, 12.3 µM (inactive) with Hs-578T and 10.9 µM in the experiment on HCT-15.
Regarding `O=c1nc(N2CCCCC2)sc2[nH]c3ccccc3c12`, the GI50 in the experiment with HOP-62 was 36.2 µM (inactive); in the experiment with CAKI-1 it was > 100 µM (inactive); in the experiment with NCI/ADR-RES, 12.6 µM (inactive); in the experiment with LOX IMVI, 74.8 µM (inactive); in the experiment on EKVX, > 100 µM (inactive); in the experiment with SNB-19, 63.1 µM (inactive). Moreover, the GI50 was > 100 µM (inactive) in the experiment with MDA-N; > 100 µM (inactive) with OVCAR-8; 98.2 µM (inactive) with NCI-H460; 66.2 µM (inactive) with TK-10; > 100 µM (inactive) with T47D; > 100 µM (inactive) in the experiment with SF-295. The GI50 is > 100 µM (inactive) in the experiment on SNB-75; > 100 µM (inactive) in the experiment with UACC-257; > 100 µM (inactive) in the experiment with DU-145; > 100 µM (inactive) with Hs-578T; over 100 µM in the experiment with HCT-15.
As for `COC(=O)C1=C(C(=O)Nc2cccnc2Cl)N(c2ccc(OC)cc2[N+](=O)[O-])C(c2ccc(C)cc2)=CC1c1ccc(OC)cc1OC` (stereo not drawn), the GI50 is 23.3 µM (inactive) with HOP-62; 36.9 µM (inactive) with CAKI-1; 17.6 µM (inactive) in the experiment on NCI/ADR-RES; 2.82 µM (inactive) with LOX IMVI; 21.9 µM (inactive) with EKVX; 32.1 µM (inactive) in the experiment with SNB-19. For the same compound, the GI50 in the experiment on MCF7 was 2.15 µM (inactive); in the experiment on OVCAR-8, 8.79 µM (inactive); in the experiment on RXF 393, 3.13 µM (inactive); in the experiment with NCI-H460, 23.9 µM (inactive); in the experiment with TK-10 it was 20.7 µM (inactive); in the experiment with T47D, 10 µM (inactive). For the same compound, the GI50 with SF-295 was 23.2 µM (inactive); in the experiment on SNB-75 it was 14.2 µM (inactive); with UACC-257, 25.8 µM (inactive); in the experiment on DU-145 it was 23 µM (inactive); in the experiment on NCI-H226, 12.9 µM (inactive); in the experiment on Hs-578T, 25.3 µM (inactive). Also, the GI50 in the experiment on HCT-15 was 4.27 µM.
For `CSc1cnn(CCC#N)c(=O)n1`, the GI50 with HOP-62 was > 100 µM (inactive); in the experiment with CAKI-1, > 100 µM (inactive); in the experiment with LOX IMVI, 93.5 µM (inactive); in the experiment on EKVX it was > 100 µM (inactive); in the experiment with SNB-19, > 100 µM (inactive); with MDA-N it was > 100 µM (inactive). Besides, the GI50 was 39.4 µM (inactive) in the experiment with MCF7; > 100 µM (inactive) with OVCAR-8; > 100 µM (inactive) in the experiment with RXF 393; > 100 µM (inactive) in the experiment on TK-10; > 100 µM (inactive) in the experiment with T47D; > 100 µM (inactive) in the experiment on SF-295. The GI50 is 84.9 µM (inactive) with SNB-75; 62.5 µM (inactive) in the experiment with UACC-257; > 100 µM (inactive) in the experiment on DU-145; > 100 µM (inactive) in the experiment on NCI-H226; > 100 µM (inactive) in the experiment with Hs-578T; over 10 µM in the experiment on HCT-15.
As to `CN(C)/C=N/S(=O)(=O)c1nn2c(C=O)c(-c3ccc(-c4ccccc4)cc3)nc2s1`, the GI50 was 8.61 µM (inactive) in the experiment with HOP-62; 1.31 µM (inactive) in the experiment with CAKI-1; 8.57 µM (inactive) with NCI/ADR-RES; 0.753 µM (active) with LOX IMVI; 5.89 µM (inactive) in the experiment with EKVX; 11.9 µM (inactive) in the experiment with SNB-19. The GI50 with MCF7 was 0.838 µM (active); in the experiment on OVCAR-8, 5.28 µM (inactive); with RXF 393 it was 1.71 µM (inactive); with NCI-H460, 5.51 µM (inactive); in the experiment with TK-10, 1.83 µM (inactive); in the experiment on T47D, 1.95 µM (inactive). For the same compound, the GI50 in the experiment on SF-295 is 14.4 µM (inactive); in the experiment with SNB-75 it was 4.12 µM (inactive); in the experiment with UACC-257 it was 2.97 µM (inactive); with DU-145, 2.4 µM (inactive); in the experiment on NCI-H226 it was 13.3 µM (inactive); in the experiment on Hs-578T it was 3.09 µM (inactive). For the same compound, the GI50 in the experiment with HCT-15 is 2.26 µM.
As for `CN(C)C(=S)S` [SODIUM DIMETHYLCARBAMODITHIOATE], the GI50 with CAKI-1 was 63.1 µM (inactive); in the experiment with NCI/ADR-RES it was > 100 µM (inactive); in the experiment on LOX IMVI, 34.4 µM (inactive); with EKVX, > 94.6 µM (inactive); with SNB-19, > 100 µM (inactive); with MCF7, > 100 µM (inactive). In addition, the GI50 in the experiment on OVCAR-8 was > 52.5 µM (inactive); in the experiment with RXF 393, 83.9 µM (inactive); with NCI-H460, 4.68 µM (inactive); with TK-10, > 100 µM (inactive); in the experiment with T47D it was > 100 µM (inactive); in the experiment on SF-295, > 80.2 µM (inactive). The GI50 with SNB-75 was > 85.5 µM (inactive); with UACC-257, > 100 µM (inactive); in the experiment on DU-145 it was > 95.7 µM (inactive); in the experiment on NCI-H226, > 100 µM (inactive); in the experiment on Hs-578T, > 100 µM (inactive); with HCT-15, over 76 µM.
As for `CC(=O)/C(=C\Nc1c(C)n(C)n(C)c1=O)C(=O)c1ccccc1`, the GI50 in the experiment on HOP-62, with CAKI-1, with LOX IMVI, with EKVX, in the experiment on SNB-19 and in the experiment on MDA-N was > 50 µM (inactive) each time. The GI50 in the experiment with MCF7, in the experiment on RXF 393, with NCI-H460, in the experiment on TK-10, with T47D and in the experiment on SF-295 was > 50 µM (inactive) in each case. Further, the GI50 in the experiment on UACC-257 is > 50 µM (inactive); with DU-145, > 50 µM (inactive); with NCI-H226 it was > 50 µM (inactive); in the experiment with Hs-578T it was > 50 µM (inactive); with HCT-15 it was over 50 µM.
Consider `N#Cc1c(N)[nH]c2ccc(Sc3ccccc3)cc12`, for which the GI50 in the experiment on HOP-62 is 0.456 µM (active); in the experiment with CAKI-1 it was 0.216 µM (active); with NCI/ADR-RES, 0.101 µM (active); with LOX IMVI, 0.213 µM (active); with EKVX, 0.659 µM (active); in the experiment with SNB-19, 0.46 µM (active). Also, the GI50 with MCF7 was < 0.0711 µM (active); with OVCAR-8, 0.358 µM (active); with RXF 393, 0.208 µM (active); in the experiment on NCI-H460 it was 0.201 µM (active); with TK-10 it was 1.8 µM (inactive); with T47D it was 0.622 µM (active). Further, the GI50 with SF-295 was 0.23 µM (active); with SNB-75 it was 0.624 µM (active); in the experiment with UACC-257, 12.8 µM (inactive); in the experiment with DU-145 it was 0.721 µM (active); with NCI-H226, 0.457 µM (active); with Hs-578T, 0.449 µM (active). Besides, the GI50 in the experiment on HCT-15 was 0.098 µM.
Take `O=c1c2cc([N+](=O)[O-])ccc2n2n1Cc1ccccc1CC2`: the GI50 with HOP-62 is > 100 µM (inactive); in the experiment with CAKI-1, > 100 µM (inactive); in the experiment on NCI/ADR-RES, > 100 µM (inactive); with LOX IMVI, > 100 µM (inactive); in the experiment on EKVX it was 2.11 µM (inactive); with SNB-19, > 100 µM (inactive). The GI50 in the experiment on MDA-N is > 100 µM (inactive); with MCF7, > 100 µM (inactive); in the experiment with OVCAR-8 it was > 100 µM (inactive); with RXF 393, > 100 µM (inactive); in the experiment on NCI-H460 it was > 100 µM (inactive); with TK-10, 38.1 µM (inactive). Also, the GI50 in the experiment with SF-295 was > 100 µM (inactive); with UACC-257 it was > 100 µM (inactive); with DU-145, > 100 µM (inactive); in the experiment with NCI-H226 it was > 100 µM (inactive); in the experiment on Hs-578T, 74.8 µM (inactive); in the experiment with HCT-15 it was over 100 µM.

Values taken from ChEMBL document CHEMBL1201862, “PubChem BioAssay data set” (2004).
